{
  "source": "the supplement of paper PMC10307832",
  "test_in_all_cases": "relative viability (nuclei count vs DMSO), 5 days (fraction); higher = more cells survive",
  "key": {"[1]": {"system": "EKVX", "how_it_was_run": "(§1)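 Lung cancer cell lines were seeded in 1536-well plates and dosed by pin tool the next day, with either a single drug or a fixed anchor-drug dose combined with five library-drug doses (not always all listed) spaced in √10 steps. Five days later, one step fixed the cells and stained their nuclei (final 0.05% Triton X-100, 1% formaldehyde, 1 ug/ml Hoechst), and nuclei were counted on 4× images. Relative viability is the nuclei count in treated wells divided by the count in vehicle wells, and each value is the median of duplicate plates.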"}, "[2]": {"system": "LCLC-97TM1", "how_it_was_run": "as §1"}, "[3]": {"system": "NCI-H1437", "how_it_was_run": "as §1"}, "[4]": {"system": "NCI-H1650", "how_it_was_run": "as §1"}, "[5]": {"system": "NCI-H1666", "how_it_was_run": "as §1"}, "[6]": {"system": "NCI-H1792", "how_it_was_run": "as §1"}, "[7]": {"system": "NCI-H1915", "how_it_was_run": "as §1"}, "[8]": {"system": "NCI-H1975", "how_it_was_run": "as §1"}, "[9]": {"system": "NCI-H2342", "how_it_was_run": "as §1"}, "[10]": {"system": "NCI-H23", "how_it_was_run": "as §1"}, "[11]": {"system": "NCI-H322M", "how_it_was_run": "as §1"}, "[12]": {"system": "NCI-H358", "how_it_was_run": "as §1"}, "[13]": {"system": "NCI-H441", "how_it_was_run": "as §1"}, "[14]": {"system": "NCI-H460", "how_it_was_run": "as §1"}, "[15]": {"system": "NCI-H520", "how_it_was_run": "as §1"}, "[16]": {"system": "NCI-H522", "how_it_was_run": "as §1"}, "[17]": {"system": "NCI-H596", "how_it_was_run": "as §1"}, "[18]": {"system": "NCI-H647", "how_it_was_run": "as §1"}, "[19]": {"system": "NCI-H661", "how_it_was_run": "as §1"}, "[20]": {"system": "NCI-H727", "how_it_was_run": "as §1"}, "[21]": {"system": "NCI-H838", "how_it_was_run": "as §1"}, "[22]": {"system": "PC-3 [JPC-3]", "how_it_was_run": "as §1"}, "[23]": {"system": "SK-LU-1", "how_it_was_run": "as §1"}},
  "data": [
    {"smiles": "CN1CCN(CCOc2cc(OC3CCOCC3)c3c(Nc4c(Cl)ccc5c4OCO5)ncnc3c2)CC1", "note": "[Saracatinib] + CC(=O)Nc1cccc(-n2c(=O)n(C3CC3)c(=O)c3c(Nc4ccc(I)cc4F)n(C)c(=O)c(C)c32)c1 [Trametinib] (partner 0.02 µM)", "values": [
      {"measurement": "relative viability", "setting": "[1]; first compound 0.02 µM", "result": 0.274},
      {"measurement": "relative viability", "setting": "[1]; first compound 0.6325 µM", "result": 0.37},
      {"measurement": "relative viability", "setting": "[1]; first compound 2 µM", "result": 0.163},
      {"measurement": "relative viability", "setting": "[2]; first compound 0.02 µM", "result": 0.222},
      {"measurement": "relative viability", "setting": "[2]; first compound 0.2 µM", "result": 0.21},
      {"measurement": "relative viability", "setting": "[2]; first compound 0.6325 µM", "result": 0.223},
      {"measurement": "relative viability", "setting": "[2]; first compound 2 µM", "result": 0.275},
      {"measurement": "relative viability", "setting": "[3]; first compound 0.02 µM", "result": 0.652},
      {"measurement": "relative viability", "setting": "[3]; first compound 0.2 µM", "result": 0.538},
      {"measurement": "relative viability", "setting": "[3]; first compound 0.6325 µM", "result": 0.733},
      {"measurement": "relative viability", "setting": "[3]; first compound 2 µM", "result": 0.538},
      {"measurement": "relative viability", "setting": "[4]; first compound 0.02 µM", "result": 0.528},
      {"measurement": "relative viability", "setting": "[4]; first compound 0.2 µM", "result": 0.438},
      {"measurement": "relative viability", "setting": "[4]; first compound 0.6325 µM", "result": 0.505},
      {"measurement": "relative viability", "setting": "[4]; first compound 2 µM", "result": 0.291},
      {"measurement": "relative viability", "setting": "[5]; first compound 0.02 µM", "result": 0.829},
      {"measurement": "relative viability", "setting": "[5]; first compound 0.2 µM", "result": 0.939},
      {"measurement": "relative viability", "setting": "[5]; first compound 0.6325 µM", "result": 1.06},
      {"measurement": "relative viability", "setting": "[5]; first compound 2 µM", "result": 0.823},
      {"measurement": "relative viability", "setting": "[6]; first compound 0.02 µM", "result": 0.492},
      {"measurement": "relative viability", "setting": "[6]; first compound 0.2 µM", "result": 0.355},
      {"measurement": "relative viability", "setting": "[6]; first compound 0.6325 µM", "result": 0.382},
      {"measurement": "relative viability", "setting": "[6]; first compound 2 µM", "result": 0.3},
      {"measurement": "relative viability", "setting": "[7]; first compound 0.02 µM", "result": 0.305},
      {"measurement": "relative viability", "setting": "[7]; first compound 0.2 µM", "result": 0.292},
      {"measurement": "relative viability", "setting": "[7]; first compound 0.6325 µM", "result": 0.251},
      {"measurement": "relative viability", "setting": "[7]; first compound 2 µM", "result": 0.265},
      {"measurement": "relative viability", "setting": "[8]; first compound 0.02 µM", "result": 0.37},
      {"measurement": "relative viability", "setting": "[8]; first compound 0.2 µM", "result": 0.412},
      {"measurement": "relative viability", "setting": "[8]; first compound 0.6325 µM", "result": 0.391},
      {"measurement": "relative viability", "setting": "[8]; first compound 2 µM", "result": 0.267},
      {"measurement": "relative viability", "setting": "[9]; first compound 0.02 µM", "result": 0.763},
      {"measurement": "relative viability", "setting": "[9]; first compound 0.2 µM", "result": 0.789},
      {"measurement": "relative viability", "setting": "[9]; first compound 0.6325 µM", "result": 0.944},
      {"measurement": "relative viability", "setting": "[9]; first compound 2 µM", "result": 0.817},
      {"measurement": "relative viability", "setting": "[10]; first compound 0.02 µM", "result": 0.344},
      {"measurement": "relative viability", "setting": "[10]; first compound 0.6325 µM", "result": 0.351},
      {"measurement": "relative viability", "setting": "[10]; first compound 2 µM", "result": 0.218},
      {"measurement": "relative viability", "setting": "[11]; first compound 0.02 µM", "result": 0.529},
      {"measurement": "relative viability", "setting": "[11]; first compound 0.2 µM", "result": 0.449},
      {"measurement": "relative viability", "setting": "[11]; first compound 0.6325 µM", "result": 0.582},
      {"measurement": "relative viability", "setting": "[11]; first compound 2 µM", "result": 0.357},
      {"measurement": "relative viability", "setting": "[12]; first compound 0.02 µM", "result": 0.156},
      {"measurement": "relative viability", "setting": "[12]; first compound 0.2 µM", "result": 0.131},
      {"measurement": "relative viability", "setting": "[12]; first compound 0.6325 µM", "result": 0.105},
      {"measurement": "relative viability", "setting": "[12]; first compound 2 µM", "result": 0.0979},
      {"measurement": "relative viability", "setting": "[13]; first compound 0.02 µM", "result": 0.514},
      {"measurement": "relative viability", "setting": "[13]; first compound 0.2 µM", "result": 0.487},
      {"measurement": "relative viability", "setting": "[13]; first compound 0.6325 µM", "result": 0.507},
      {"measurement": "relative viability", "setting": "[13]; first compound 2 µM", "result": 0.339},
      {"measurement": "relative viability", "setting": "[14]; first compound 0.02 µM", "result": 0.215},
      {"measurement": "relative viability", "setting": "[14]; first compound 0.2 µM", "result": 0.139},
      {"measurement": "relative viability", "setting": "[14]; first compound 0.6325 µM", "result": 0.129},
      {"measurement": "relative viability", "setting": "[14]; first compound 2 µM", "result": 0.056},
      {"measurement": "relative viability", "setting": "[15]; first compound 0.02 µM", "result": 0.703},
      {"measurement": "relative viability", "setting": "[15]; first compound 0.2 µM", "result": 0.53},
      {"measurement": "relative viability", "setting": "[15]; first compound 0.6325 µM", "result": 0.586},
      {"measurement": "relative viability", "setting": "[15]; first compound 2 µM", "result": 0.273},
      {"measurement": "relative viability", "setting": "[16]; first compound 0.02 µM", "result": 0.708},
      {"measurement": "relative viability", "setting": "[16]; first compound 0.2 µM", "result": 0.745},
      {"measurement": "relative viability", "setting": "[16]; first compound 0.6325 µM", "result": 0.788},
      {"measurement": "relative viability", "setting": "[16]; first compound 2 µM", "result": 0.536},
      {"measurement": "relative viability", "setting": "[17]; first compound 0.02 µM", "result": 0.636},
      {"measurement": "relative viability", "setting": "[17]; first compound 0.2 µM", "result": 0.722},
      {"measurement": "relative viability", "setting": "[17]; first compound 0.6325 µM", "result": 0.648},
      {"measurement": "relative viability", "setting": "[17]; first compound 2 µM", "result": 0.584},
      {"measurement": "relative viability", "setting": "[18]; first compound 0.02 µM", "result": 0.449},
      {"measurement": "relative viability", "setting": "[18]; first compound 0.2 µM", "result": 0.381},
      {"measurement": "relative viability", "setting": "[18]; first compound 0.6325 µM", "result": 0.39},
      {"measurement": "relative viability", "setting": "[18]; first compound 2 µM", "result": 0.255},
      {"measurement": "relative viability", "setting": "[19]; first compound 0.02 µM", "result": 0.568},
      {"measurement": "relative viability", "setting": "[19]; first compound 0.2 µM", "result": 0.572},
      {"measurement": "relative viability", "setting": "[19]; first compound 0.6325 µM", "result": 0.6},
      {"measurement": "relative viability", "setting": "[19]; first compound 2 µM", "result": 0.362},
      {"measurement": "relative viability", "setting": "[20]; first compound 0.02 µM", "result": 0.369},
      {"measurement": "relative viability", "setting": "[20]; first compound 0.2 µM", "result": 0.402},
      {"measurement": "relative viability", "setting": "[20]; first compound 0.6325 µM", "result": 0.379},
      {"measurement": "relative viability", "setting": "[20]; first compound 2 µM", "result": 0.308},
      {"measurement": "relative viability", "setting": "[21]; first compound 0.02 µM", "result": 0.54},
      {"measurement": "relative viability", "setting": "[21]; first compound 0.2 µM", "result": 0.497},
      {"measurement": "relative viability", "setting": "[21]; first compound 0.6325 µM", "result": 0.47},
      {"measurement": "relative viability", "setting": "[21]; first compound 2 µM", "result": 0.425},
      {"measurement": "relative viability", "setting": "[22]; first compound 0.02 µM", "result": 0.758},
      {"measurement": "relative viability", "setting": "[22]; first compound 0.2 µM", "result": 0.587},
      {"measurement": "relative viability", "setting": "[22]; first compound 0.6325 µM", "result": 0.534},
      {"measurement": "relative viability", "setting": "[22]; first compound 2 µM", "result": 0.494},
      {"measurement": "relative viability", "setting": "[23]; first compound 0.02 µM", "result": 0.51},
      {"measurement": "relative viability", "setting": "[23]; first compound 0.2 µM", "result": 0.364},
      {"measurement": "relative viability", "setting": "[23]; first compound 0.6325 µM", "result": 0.375},
      {"measurement": "relative viability", "setting": "[23]; first compound 2 µM", "result": 0.301}
    ]}
  ]
}
